# Assay results from PubChem BioAssay AID1919005 (Molecular Pharmacology Branch, DTP, NCI, 2023).
# Test system: 855422-203-R-J1-PDC complex spheroid growth
# Assay: Anticancer human tumor 855422-203-R-J1-PDC patient-derived bladder carcinoma cell line growth inhibition [AhR]
# Settings: for IC50: curve of first compound; for viability, T/C: stronger effect = lower value
# Method in brief: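 Complex tumor spheroids co-cultured with HUVEC and human MSC stroma; AhR antagonists tested in combination with standard-of-care and investigational agents. Top concentration at or near clinical Cmax (else 10 microM), half-log dilutions; growth expressed as percent test/control.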
# [1] = second compound 0.1 µM, first compound 0.0316 µM
# [2] = second compound 0.1 µM, first compound 0.1 µM
# [3] = second compound 0.1 µM, first compound 0.316 µM
# [4] = second compound 0.1 µM, first compound 1 µM
# [5] = second compound 0.1 µM, first compound 3.16 µM
# [6] = second compound 0.1 µM, first compound 10 µM
# [7] = second compound 0.316 µM, first compound 0.0316 µM
# [8] = second compound 0.316 µM, first compound 0.1 µM
# [9] = second compound 0.316 µM, first compound 0.316 µM
# [10] = second compound 0.316 µM, first compound 1 µM
# [11] = second compound 0.316 µM, first compound 3.16 µM
# [12] = second compound 0.316 µM, first compound 10 µM
# [13] = second compound 1 µM, first compound 0.0316 µM
# [14] = second compound 1 µM, first compound 0.1 µM
# [15] = second compound 1 µM, first compound 0.316 µM
# [16] = second compound 1 µM, first compound 1 µM
# [17] = second compound 1 µM, first compound 3.16 µM
# [18] = second compound 1 µM, first compound 10 µM
# [19] = second compound 3.16 µM, first compound 0.0316 µM
# [20] = second compound 3.16 µM, first compound 0.1 µM
# [21] = second compound 3.16 µM, first compound 0.316 µM
# [22] = second compound 3.16 µM, first compound 1 µM
# [23] = second compound 3.16 µM, first compound 3.16 µM
# [24] = second compound 3.16 µM, first compound 10 µM
# [25] = second compound 10 µM, first compound 0.0316 µM
# [26] = second compound 10 µM, first compound 0.1 µM
# [27] = second compound 10 µM, first compound 0.316 µM
# [28] = second compound 10 µM, first compound 1 µM
# [29] = second compound 10 µM, first compound 3.16 µM
# [30] = second compound 10 µM, first compound 10 µM
# 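Further: spheroids exposed to agents for seven days before readout.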
# 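Wherever viability, T/C is given: percent of DMSO vehicle control luminescence viability.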
compound,measurement,setting,value
CCc1c2c(nc3ccc(O)cc13)-c1cc3c(c(=O)n1C2)COC(=O)[C@]3(O)CC + Cc1ccccc1N=Nc1ccc(NC(=O)c2ccnn2C)c(C)c1,IC50,second compound 0.1 µM,18.1 nM
same,IC50,second compound 0.316 µM,15.5 nM
same,IC50,second compound 1 µM,11.5 nM
same,IC50,second compound 3.16 µM,7.01 nM
same,IC50,second compound 10 µM,5.43 nM
same,"viability, T/C","second compound 0.1 µM, first compound 0.000949 µM",107%
same,"viability, T/C","second compound 0.1 µM, first compound 0.003 µM",98.3%
same,"viability, T/C","second compound 0.1 µM, first compound 0.00949 µM",75.5%
same,"viability, T/C","second compound 0.1 µM, first compound 0.03 µM",29.6%
same,"viability, T/C","second compound 0.1 µM, first compound 0.0949 µM",17.4%
same,"viability, T/C","second compound 0.1 µM, first compound 0.3 µM",11.5%
same,"viability, T/C","second compound 0.316 µM, first compound 0.000949 µM",98.3%
same,"viability, T/C","second compound 0.316 µM, first compound 0.003 µM",93.7%
same,"viability, T/C","second compound 0.316 µM, first compound 0.00949 µM",68.1%
same,"viability, T/C","second compound 0.316 µM, first compound 0.03 µM",25.2%
same,"viability, T/C","second compound 0.316 µM, first compound 0.0949 µM",14.6%
same,"viability, T/C","second compound 0.316 µM, first compound 0.3 µM",9.09%
same,"viability, T/C","second compound 1 µM, first compound 0.000949 µM",102%
same,"viability, T/C","second compound 1 µM, first compound 0.003 µM",95.3%
same,"viability, T/C","second compound 1 µM, first compound 0.00949 µM",55.5%
same,"viability, T/C","second compound 1 µM, first compound 0.03 µM",20.7%
same,"viability, T/C","second compound 1 µM, first compound 0.0949 µM",14%
same,"viability, T/C","second compound 1 µM, first compound 0.3 µM",9.24%
same,"viability, T/C","second compound 3.16 µM, first compound 0.000949 µM",92.3%
same,"viability, T/C","second compound 3.16 µM, first compound 0.003 µM",81.8%
same,"viability, T/C","second compound 3.16 µM, first compound 0.00949 µM",36.8%
same,"viability, T/C","second compound 3.16 µM, first compound 0.03 µM",21.7%
same,"viability, T/C","second compound 3.16 µM, first compound 0.0949 µM",13%
same,"viability, T/C","second compound 3.16 µM, first compound 0.3 µM",7.68%
same,"viability, T/C","second compound 10 µM, first compound 0.000949 µM",76.5%
same,"viability, T/C","second compound 10 µM, first compound 0.003 µM",73.4%
same,"viability, T/C","second compound 10 µM, first compound 0.00949 µM",28.1%
same,"viability, T/C","second compound 10 µM, first compound 0.03 µM",22%
same,"viability, T/C","second compound 10 µM, first compound 0.0949 µM",13.7%
same,"viability, T/C","second compound 10 µM, first compound 0.3 µM",9.18%
Nc1ccccc1NC(=O)c1ccc(CNC(=O)OCc2cccnc2)cc1 + Cc1ccccc1N=Nc1ccc(NC(=O)c2ccnn2C)c(C)c1,IC50,second compound 0.1 µM,6310 nM
same,IC50,second compound 0.316 µM,6250 nM
same,IC50,second compound 1 µM,6860 nM
same,IC50,second compound 3.16 µM,6010 nM
same,IC50,second compound 10 µM,4290 nM
same,"viability, T/C",[1],101%
same,"viability, T/C",[2],106%
same,"viability, T/C",[3],100%
same,"viability, T/C",[4],107%
same,"viability, T/C",[5],78.4%
same,"viability, T/C",[6],31.1%
same,"viability, T/C",[7],103%
same,"viability, T/C",[8],101%
same,"viability, T/C",[9],104%
same,"viability, T/C",[10],107%
same,"viability, T/C",[11],84%
same,"viability, T/C",[12],26.5%
same,"viability, T/C",[13],106%
same,"viability, T/C",[14],105%
same,"viability, T/C",[15],109%
same,"viability, T/C",[16],111%
same,"viability, T/C",[17],91.2%
same,"viability, T/C",[18],29.8%
same,"viability, T/C",[19],97.4%
same,"viability, T/C",[20],92.7%
same,"viability, T/C",[21],92.1%
same,"viability, T/C",[22],98%
same,"viability, T/C",[23],86.2%
same,"viability, T/C",[24],21.1%
same,"viability, T/C",[25],85.3%
same,"viability, T/C",[26],84.3%
same,"viability, T/C",[27],87.4%
same,"viability, T/C",[28],86.3%
same,"viability, T/C",[29],61.6%
same,"viability, T/C",[30],18.2%
Nc1ccn(C2OC(CO)C(O)C2(F)F)c(=O)n1 (stereo not given) + Cc1ccccc1N=Nc1ccc(NC(=O)c2ccnn2C)c(C)c1,IC50,second compound 0.1 µM,265 nM
same,IC50,second compound 0.316 µM,293 nM
same,IC50,second compound 1 µM,248 nM
same,IC50,second compound 3.16 µM,167 nM
same,IC50,second compound 10 µM,73.1 nM
same,"viability, T/C",[1],120%
same,"viability, T/C",[2],96.4%
same,"viability, T/C",[3],40.4%
same,"viability, T/C",[4],29.2%
same,"viability, T/C",[5],25.9%
same,"viability, T/C",[6],16.5%
same,"viability, T/C",[7],113%
same,"viability, T/C",[8],89.3%
same,"viability, T/C",[9],46.5%
same,"viability, T/C",[10],28.2%
same,"viability, T/C",[11],23.4%
same,"viability, T/C",[12],20.7%
same,"viability, T/C",[13],109%
same,"viability, T/C",[14],84.5%
same,"viability, T/C",[15],39.2%
same,"viability, T/C",[16],30.1%
same,"viability, T/C",[17],23.8%
same,"viability, T/C",[18],19.1%
same,"viability, T/C",[19],84.5%
same,"viability, T/C",[20],63.3%
same,"viability, T/C",[21],31.9%
same,"viability, T/C",[22],29.6%
same,"viability, T/C",[23],22.3%
same,"viability, T/C",[24],17.1%
same,"viability, T/C",[25],64%
same,"viability, T/C",[26],45.8%
same,"viability, T/C",[27],29.6%
same,"viability, T/C",[28],27.7%
same,"viability, T/C",[29],22.1%
same,"viability, T/C",[30],18%
O=C(c1cc(Cc2n[nH]c(=O)c3ccccc23)ccc1F)N1CCN(C(=O)C2CC2)CC1 + Cc1ccccc1N=Nc1ccc(NC(=O)c2ccnn2C)c(C)c1,IC50,second compound 0.1 µM,> 10000 nM
same,IC50,second compound 0.316 µM,> 10000 nM
same,IC50,second compound 1 µM,> 10000 nM
same,IC50,second compound 3.16 µM,> 10000 nM
same,IC50,second compound 10 µM,> 10000 nM
same,"viability, T/C",[1],96.5%
same,"viability, T/C",[2],102%
same,"viability, T/C",[3],99.3%
same,"viability, T/C",[4],95.1%
same,"viability, T/C",[5],90.9%
same,"viability, T/C",[6],93.2%
same,"viability, T/C",[7],102%
same,"viability, T/C",[8],100%
same,"viability, T/C",[9],97.8%
same,"viability, T/C",[10],93.1%
same,"viability, T/C",[11],94.2%
same,"viability, T/C",[12],93.1%
same,"viability, T/C",[13],97.6%
same,"viability, T/C",[14],102%
same,"viability, T/C",[15],103%
same,"viability, T/C",[16],100%
same,"viability, T/C",[17],101%
same,"viability, T/C",[18],94.6%
same,"viability, T/C",[19],90.2%
same,"viability, T/C",[20],91.7%
same,"viability, T/C",[21],92.2%
same,"viability, T/C",[22],94.3%
same,"viability, T/C",[23],93.3%
same,"viability, T/C",[24],84.2%
same,"viability, T/C",[25],80.9%
same,"viability, T/C",[26],79.3%
same,"viability, T/C",[27],76.9%
same,"viability, T/C",[28],79.7%
same,"viability, T/C",[29],74%
same,"viability, T/C",[30],63.6%
